Measured values reported in ChEMBL document CHEMBL3585339, “Synthesis, biological activities and pharmacokinetic properties of new fluorinated derivatives of selective PDE4D inhibitors” (Bioorg Med Chem, 2015).
Activity calls are given as the source filed them. The calls are words filed in the database; no cut-off is given here.

Tests used:
[1] = target: 3',5'-cyclic-AMP phosphodiesterase 4A (Homo sapiens) (UniProt P27815); experiment: Inhibition of human recombinant PDE4A4 expressed in baculoviral system using cAMP as substrate at 10 uM by fluorescence polarization assay relative to control
[2] = Plasma concentration in BALB/c mouse at 10 mg/kg, sc measured at 1 hr by LC-MS/MS analysis; assay type: ADME, organism-based
[3] = Cmax in BALB/c mouse brain at 10 mg/kg, sc by LC-MS/MS analysis; assay type: ADME, organism-based; design: dose 10 mg/kg, route subcutaneous
[4] = Plasma concentration in BALB/c mouse at 10 mg/kg, sc measured at 5 hrs by LC-MS/MS analysis; assay type: ADME, organism-based
[5] = Drug uptake in BALB/c mouse brain at 10 mg/kg, sc measured at 2 hrs by LC-MS/MS analysis; assay type: ADME, organism-based; details: read-out: Drug uptake
[6] = Plasma concentration in BALB/c mouse at 10 mg/kg, sc measured at 0.33 hrs by LC-MS/MS analysis; assay type: ADME, organism-based
[7] = Genotoxicity in human HTLA-230 cells assessed as gamma-H2AX production at 100 uM after 24 hrs by Western blot analysis; assay type: toxicity, cell-based; details: htla-230, 24 h
[8] = Tmax in BALB/c mouse plasma at 10 mg/kg, sc by LC-MS/MS analysis; assay type: ADME, organism-based
Mus musculus [9] = experiment: Toxicity in mouse assessed as sedative effect by measuring reduction of total distance traveled at 10 mg/kg, po measured over 60 mins by open-field test; assay type: organism-based; details: in vivo, 1 h
[10] = Cmax in BALB/c mouse plasma at 10 mg/kg, sc by LC-MS/MS analysis; assay type: ADME, organism-based; design: dose 10 mg/kg, route subcutaneous
[11] = Tmax in BALB/c mouse brain at 10 mg/kg, sc by LC-MS/MS analysis; assay type: ADME, organism-based
[12] = Drug uptake in BALB/c mouse brain at 10 mg/kg, sc measured at 0.33 hrs by LC-MS/MS analysis; assay type: ADME, organism-based; details: read-out: Drug uptake
[13] = Ratio of AUC (0 to t) in BALB/c mouse brain to AUC (0 to t) in BALB/c mouse plasma at 10 mg/kg, sc by LC-MS/MS analysis; assay type: ADME, organism-based; details: read-out: Ratio AUC
[14] = Drug uptake in BALB/c mouse brain at 10 mg/kg, sc measured at 3 hrs by LC-MS/MS analysis; assay type: ADME, organism-based; details: read-out: Drug uptake
[15] = target: 3',5'-cyclic-AMP phosphodiesterase 4B (Homo sapiens) (UniProt Q07343); experiment: Inhibition of human recombinant PDE4B2 expressed in baculoviral system using cAMP as substrate at 10 uM by fluorescence polarization assay relative to control
[16] = Drug uptake in BALB/c mouse brain at 10 mg/kg, sc measured at 0.17 hrs by LC-MS/MS analysis; assay type: ADME, organism-based; details: read-out: Drug uptake
[17] = target: T1, 3',5'-cyclic-AMP phosphodiesterase 4D (Homo sapiens, UniProt Q08499); experiment: Inhibition of human recombinant PDE4D3 expressed in baculoviral system using cAMP as substrate by fluorescence polarization assay
[18] = Plasma concentration in BALB/c mouse at 10 mg/kg, sc measured at 0.67 hrs by LC-MS/MS analysis; assay type: ADME, organism-based
[19] = Drug uptake in BALB/c mouse brain at 10 mg/kg, sc measured at 1 hr by LC-MS/MS analysis; assay type: ADME, organism-based; details: read-out: Drug uptake
Mus musculus [20] = experiment: Toxicity in mouse assessed as sedative effect by measuring prolongation of immobility time at 10 mg/kg, po measured over 60 mins by open-field test; assay type: organism-based; details: in vivo, 1 h
[21] = Drug uptake in BALB/c mouse brain at 10 mg/kg, sc measured at 5 hrs by LC-MS/MS analysis; assay type: ADME, organism-based; details: read-out: Drug uptake
[22] = Cytotoxicity against human HTLA-230 cells at 100 uM after 24 hrs by lactate dehydrogenase release assay (reference value: 0.67 +/- 0.24%); assay type: cell-based; details: htla-230, 24 h
[23] = Plasma concentration in BALB/c mouse at 10 mg/kg, sc measured at 0.17 hrs by LC-MS/MS analysis; assay type: ADME, organism-based
[24] = Plasma concentration in BALB/c mouse at 10 mg/kg, sc measured at 3 hrs by LC-MS/MS analysis; assay type: ADME, organism-based
[25] = Elimination half life in BALB/c mouse plasma at 10 mg/kg, sc by LC-MS/MS analysis; assay type: ADME, organism-based; details: read-out: beta t1/2 (converted)
[26] = Drug uptake in BALB/c mouse brain at 10 mg/kg, sc measured at 0.67 hrs by LC-MS/MS analysis; assay type: ADME, organism-based; details: read-out: Drug uptake
[27] = Elimination half life in BALB/c mouse brain at 10 mg/kg, sc by LC-MS/MS analysis; assay type: ADME, organism-based; details: read-out: beta t1/2 (converted)
[28] = Effect on cAMP level in human HTLA-230 cells at 100 uM after 10 mins by enzyme immunoassay; assay type: ADME, cell-based; details: htla-230, 10 min
[29] = target: T1, 3',5'-cyclic-AMP phosphodiesterase 4D; experiment: Inhibition of PDE4D in human HTLA-230 cells assessed as increase in forskolin-induced cAMP accumulation at 100 uM pretreated for 10 mins followed by forskolin induction measured after 20 mins by enzyme immunoassay; assay type: cell-based
Brain = experiment: AUC (0 to t) in BALB/c mouse brain at 10 mg/kg, sc by LC-MS/MS analysis; assay type: ADME, organism-based; details: in vivo
[30] = Plasma concentration in BALB/c mouse at 10 mg/kg, sc measured at 2 hrs by LC-MS/MS analysis; assay type: ADME, organism-based
[31] = AUC (0 to t) in BALB/c mouse plasma at 10 mg/kg, sc by LC-MS/MS analysis; assay type: ADME, organism-based
[32] = target: T1, 3',5'-cyclic-AMP phosphodiesterase 4D; experiment: Inhibition of human recombinant PDE4D3 expressed in baculoviral system using cAMP as substrate at 10 uM by fluorescence polarization assay relative to control
[33] = Cytotoxicity against human HTLA-230 cells at 10 uM after 24 hrs by lactate dehydrogenase release assay (reference value: 0.67 +/- 0.24%); assay type: cell-based; details: htla-230, 24 h

T1 sequence (Q08499 whole entry): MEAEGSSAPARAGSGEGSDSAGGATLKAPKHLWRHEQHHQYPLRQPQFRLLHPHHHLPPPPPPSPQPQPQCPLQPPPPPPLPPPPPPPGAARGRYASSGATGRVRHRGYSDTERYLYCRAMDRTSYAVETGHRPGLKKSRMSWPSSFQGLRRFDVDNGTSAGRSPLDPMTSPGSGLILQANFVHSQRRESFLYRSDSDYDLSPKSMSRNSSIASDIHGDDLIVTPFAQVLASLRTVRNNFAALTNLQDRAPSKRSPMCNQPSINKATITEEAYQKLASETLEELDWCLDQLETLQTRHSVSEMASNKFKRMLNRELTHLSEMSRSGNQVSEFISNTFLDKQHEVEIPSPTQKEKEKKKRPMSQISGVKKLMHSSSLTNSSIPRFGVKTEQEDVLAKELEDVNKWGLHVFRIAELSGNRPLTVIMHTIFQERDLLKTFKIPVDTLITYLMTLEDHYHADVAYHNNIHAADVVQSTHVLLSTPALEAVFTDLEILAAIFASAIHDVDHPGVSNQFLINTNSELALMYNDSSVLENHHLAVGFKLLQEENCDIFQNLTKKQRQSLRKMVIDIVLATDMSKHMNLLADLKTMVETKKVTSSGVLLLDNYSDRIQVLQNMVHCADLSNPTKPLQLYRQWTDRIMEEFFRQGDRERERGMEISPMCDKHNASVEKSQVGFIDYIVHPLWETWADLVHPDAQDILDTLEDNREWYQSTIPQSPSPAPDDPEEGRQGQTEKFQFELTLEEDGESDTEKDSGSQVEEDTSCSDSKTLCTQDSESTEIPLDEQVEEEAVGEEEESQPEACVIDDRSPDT
Chain of 3',5'-cyclic-AMP phosphodiesterase 4A (Homo sapiens) (P27815 whole entry): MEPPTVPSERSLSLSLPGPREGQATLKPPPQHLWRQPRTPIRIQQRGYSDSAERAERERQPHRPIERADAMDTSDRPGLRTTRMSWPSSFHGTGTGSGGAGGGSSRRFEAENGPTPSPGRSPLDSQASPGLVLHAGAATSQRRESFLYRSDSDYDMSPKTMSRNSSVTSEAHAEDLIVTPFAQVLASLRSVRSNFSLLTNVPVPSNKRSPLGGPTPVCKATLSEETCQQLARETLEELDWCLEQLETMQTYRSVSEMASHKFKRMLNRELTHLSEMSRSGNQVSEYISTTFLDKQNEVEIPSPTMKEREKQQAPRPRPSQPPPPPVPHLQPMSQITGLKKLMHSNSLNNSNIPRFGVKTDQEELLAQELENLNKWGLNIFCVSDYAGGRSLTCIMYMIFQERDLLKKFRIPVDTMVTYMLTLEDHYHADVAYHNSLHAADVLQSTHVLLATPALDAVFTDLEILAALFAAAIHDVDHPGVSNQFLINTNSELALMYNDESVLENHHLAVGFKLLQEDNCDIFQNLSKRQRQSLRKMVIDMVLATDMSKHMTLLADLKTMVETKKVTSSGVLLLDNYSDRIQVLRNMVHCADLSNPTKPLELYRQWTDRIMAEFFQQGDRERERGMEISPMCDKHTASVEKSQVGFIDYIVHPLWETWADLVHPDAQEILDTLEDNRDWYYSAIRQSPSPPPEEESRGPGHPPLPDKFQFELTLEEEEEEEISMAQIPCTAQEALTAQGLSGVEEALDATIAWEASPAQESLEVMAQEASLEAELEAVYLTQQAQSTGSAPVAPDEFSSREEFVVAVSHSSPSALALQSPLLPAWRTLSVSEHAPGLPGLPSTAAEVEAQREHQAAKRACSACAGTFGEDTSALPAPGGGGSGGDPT
Chain of 3',5'-cyclic-AMP phosphodiesterase 4B (Homo sapiens) (Q07343 whole entry): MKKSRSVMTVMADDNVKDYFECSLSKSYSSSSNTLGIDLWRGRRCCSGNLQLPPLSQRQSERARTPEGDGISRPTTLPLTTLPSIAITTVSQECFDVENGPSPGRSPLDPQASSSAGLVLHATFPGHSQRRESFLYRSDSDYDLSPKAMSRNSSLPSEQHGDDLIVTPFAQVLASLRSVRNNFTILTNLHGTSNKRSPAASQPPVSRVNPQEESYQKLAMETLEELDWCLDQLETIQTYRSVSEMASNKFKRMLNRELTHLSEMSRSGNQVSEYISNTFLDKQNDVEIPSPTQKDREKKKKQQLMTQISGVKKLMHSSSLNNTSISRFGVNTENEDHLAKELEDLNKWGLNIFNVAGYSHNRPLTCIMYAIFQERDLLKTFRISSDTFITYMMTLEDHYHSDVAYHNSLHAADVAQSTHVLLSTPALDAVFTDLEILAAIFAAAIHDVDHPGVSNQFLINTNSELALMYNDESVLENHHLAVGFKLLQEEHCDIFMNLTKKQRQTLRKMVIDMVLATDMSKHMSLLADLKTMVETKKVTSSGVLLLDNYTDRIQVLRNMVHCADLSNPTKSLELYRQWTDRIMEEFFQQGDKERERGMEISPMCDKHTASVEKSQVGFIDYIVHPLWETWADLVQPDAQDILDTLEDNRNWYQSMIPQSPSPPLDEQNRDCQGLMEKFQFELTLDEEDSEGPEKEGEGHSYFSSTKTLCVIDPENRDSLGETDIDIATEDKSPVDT

## CC1CN(C(=O)CO/N=C/c2ccc(OC(F)F)c(OC3CCCC3)c2)CC(C)O1 (stereo not given)
[1]
  inhibition: 32%
[2]
  concentration at 1 h: 657 ng/mL
[3]
  Cmax: 1570 ng/g
[4]
  concentration at 5 h: 67.2 ng/mL
[5]
  concentration at 2 h: 96 ng/g
[6]
  concentration at 0.33 h: 1740 ng/mL
[7]
  Activity: Non-toxic
[8]
  Tmax: 10.2 min
Mus musculus [9]
  Activity: Non-toxic
[10]
  Cmax: 4410 ng/mL
[11]
  Tmax: 10.2 min
[12]
  concentration at 0.33 h: 790 ng/g
[13]
  Kp: 0.429
[14]
  concentration at 3 h: 5.45 ng/g
[15]
  inhibition: 29%
[16]
  concentration at 0.17 h: 936 ng/g
[17]
  IC50: 4840 nM
[18]
  concentration at 0.67 h: 1090 ng/mL
[19]
  concentration at 1 h: 303 ng/g
Mus musculus [20]
  Activity: Non-toxic
[21]
  concentration at 5 h: 2.94 ng/g
[22]
  Activity: 0.01%
[23]
  concentration at 0.17 h: 2160 ng/mL
[24]
  concentration at 3 h: 11.6 ng/mL
[25]
  half-life: 42 min
[26]
  concentration at 0.67 h: 453 ng/g
[27]
  half-life: 81.6 min
[28]
  Activity: Non-toxic
[29]
  inhibition: Active
Brain
  AUCt: 391 ng·h/g
[30]
  concentration at 2 h: 217 ng/mL
[31]
  AUC(0-t): 1220 ng·h/mL
[32]
  inhibition: 74%

## COc1cc([C@@H]2c3cc4c(cc3[C@@H](O[C@@H]3O[C@@H]5CO[C@@H](C)O[C@H]5[C@H](O)[C@H]3O)[C@H]3COC(=O)[C@H]23)OCO4)cc(OC)c1O [ETOPOSIDE]
[7]
  Activity: Toxic

## COc1ccc(/C=N/OCC(=O)N2CC(C)OC(C)C2)cc1OC1CCCC1 (stereo not given)
[2]
  concentration at 1 h: 32.8 ng/mL
[3]
  Cmax: 936 ng/g
[4]
  concentration at 5 h: 10.4 ng/mL
[5]
  concentration at 2 h: 2.21 ng/g
[6]
  concentration at 0.33 h: 1310 ng/mL
[7]
  Activity: Non-toxic
[8]
  Tmax: 10.2 min
Mus musculus [9]
  Activity: Non-toxic
[10]
  Cmax: 2160 ng/mL
[11]
  Tmax: 10.2 min
[12]
  concentration at 0.33 h: 396 ng/g
[13]
  Kp: 0.358
[14]
  concentration at 3 h: 1.19 ng/g
[16]
  concentration at 0.17 h: 1570 ng/g
[18]
  concentration at 0.67 h: 343 ng/mL
[19]
  concentration at 1 h: 3.29 ng/g
Mus musculus [20]
  Activity: Non-toxic
[22]
  Activity: 0.14%
[23]
  concentration at 0.17 h: 4410 ng/mL
[24]
  concentration at 3 h: 2.18 ng/mL
[25]
  half-life: 49.2 min
[26]
  concentration at 0.67 h: 84.2 ng/g
[27]
  half-life: 32.4 min
[28]
  Activity: Non-toxic
[29]
  inhibition: Active
Brain
  AUCt: 812 ng·h/g
[30]
  concentration at 2 h: 20 ng/mL
[31]
  AUC(0-t): 1890 ng·h/mL

## CC1CN(NCC(O)CO/N=C/c2ccc(OC(F)F)c(OC3CCCC3)c2)CC(C)O1 (stereo not given)
[1]
  inhibition: 58%
[15]
  inhibition: 51%
[17]
  IC50: 190 nM
[22]
  Activity: 1.54%
[32]
  inhibition: 87%

## COc1ccc(C2CNC(=O)C2)cc1OC1CCCC1 (stereo not given) [ROLIPRAM]
Mus musculus [9]
  Activity: Toxic
Mus musculus [20]
  Activity: Toxic

## CC1CN(C(=O)CCO/N=C/c2ccc(OC(F)F)c(OC3CCCC3)c2)CC(C)O1 (stereo not given)
[1]
  inhibition: 34%
[7]
  Activity: Non-toxic
[15]
  inhibition: 37%
[17]
  IC50: 470 nM
[22]
  Activity: 0.01%
[32]
  inhibition: 63%

## O=C(CO/N=C/c1ccc(OC(F)F)c(OC2CCCC2)c1)N1CCOCC1
[1]
  inhibition: 36%
[15]
  inhibition: 31%
[17]
  IC50: 1120 nM
[22]
  Activity: 2.06%
[32]
  inhibition: 63%

## O=C(CO/N=C/c1ccc(OC(F)F)c(OC2CCCC2)c1)N1CCC(O)CC1
[1]
  inhibition: 28%
[15]
  inhibition: 26%
[17]
  IC50: 2630 nM
[33]
  Activity: 0.01%
[22]
  Activity: 4.62%
[32]
  inhibition: 60%

## CN1C(=O)CN=C(c2ccccc2)c2cc(Cl)ccc21 [DIAZEPAM]
Mus musculus [9]
  Activity: Toxic
Mus musculus [20]
  Activity: Toxic

## CC1CN(CC(O)CO/N=C/c2ccc(OC(F)F)c(OC3CCCC3)c2)CC(C)O1 (stereo not given)
[1]
  inhibition: 68%
Mus musculus [9]
  Activity: Toxic
[15]
  inhibition: 68%
[17]
  IC50: 190 nM
[33]
  Activity: 0.01%
Mus musculus [20]
  Activity: Toxic
[22]
  Activity: 8.83%
[32]
  inhibition: 84%

## OC(CO/N=C/c1ccc(OC(F)F)c(OC2CCCC2)c1)CN1CCOCC1 (stereo not given)
[1]
  inhibition: 41%
[7]
  Activity: Non-toxic
[15]
  inhibition: 43%
[17]
  IC50: 1490 nM
[22]
  Activity: 0.21%
[32]
  inhibition: 83%

## COc1ccc(/C=N/OCC(O)CN2CC(C)OC(C)C2)cc1OC1CCCC1 (stereo not given)
Mus musculus [9]
  Activity: Non-toxic
Mus musculus [20]
  Activity: Non-toxic

## OC1CCN(CC(O)CO/N=C/c2ccc(OC(F)F)c(OC3CCCC3)c2)CC1 (stereo not given)
[1]
  inhibition: 15%
[15]
  inhibition: 15%
[17]
  IC50: 2540 nM
[33]
  Activity: 3.42%
[22]
  Activity: 31.37%
[32]
  inhibition: 51%
